Experimental data taken from ChEMBL document CHEMBL6121052, “Design of ROS-Triggered Sesquiterpene Lactone SC Prodrugs as TrxR1 Covalent Inhibitors for the Treatment of Non-Small Cell Lung Cancer” (J Med Chem, 2025).
Calls of active or inactive are those of the source. No cut-off for these calls is given here.

Legend:
[1] = tested on: NCI-H1299; assay: Induction of ferroptosis in human NCI-H1299 cells assessed as cell death by MTT assay; type: functional, cell-based
[2] = tested on: NCI-H1299; assay: Antitumor activity against human NCI-H1299 cells xenografted in BALB/c mouse assessed as reduction in tumor weight at 5 to 10 mg/kg, po administered every 2 days for 2 weeks; type: functional, organism-based; conditions: dose 5-10 mg/kg
[3] = tested on: NCI-H1299; assay: Induction of apoptosis in human NCI-H1299 cells assessed as decrease in BCl-2 expression at upto 10 uM incubated for 24 hrs by Western blot analysis; type: functional, cell-based
[4] = tested on: NCI-H1299; assay: Inhibition of colony formation in human NCI-H1299 cells assessed as reduction in colony number at 4 uM incubated for 14 days by crystal violet staining based analysis; type: functional, cell-based; conditions: time 14.0 day
[5] = tested on: NCI-H1299; assay: Induction of apoptosis in human NCI-H1299 cells assessed as early apoptotic cells at 5 uM measured after 48 hrs by Annexin V/FITC staining based flow cytometric analysis (reference value: 1.14 %); type: functional
[6] = biological target: T1, Thioredoxin reductase 1, cytoplasmic (Homo sapiens) (UniProt Q16881); assay: Inhibition of TrxR1 in human NCI-H2291 cells; type: cell-based; conditions: dose <= 10.0 µM
T1 sequence (whole entry): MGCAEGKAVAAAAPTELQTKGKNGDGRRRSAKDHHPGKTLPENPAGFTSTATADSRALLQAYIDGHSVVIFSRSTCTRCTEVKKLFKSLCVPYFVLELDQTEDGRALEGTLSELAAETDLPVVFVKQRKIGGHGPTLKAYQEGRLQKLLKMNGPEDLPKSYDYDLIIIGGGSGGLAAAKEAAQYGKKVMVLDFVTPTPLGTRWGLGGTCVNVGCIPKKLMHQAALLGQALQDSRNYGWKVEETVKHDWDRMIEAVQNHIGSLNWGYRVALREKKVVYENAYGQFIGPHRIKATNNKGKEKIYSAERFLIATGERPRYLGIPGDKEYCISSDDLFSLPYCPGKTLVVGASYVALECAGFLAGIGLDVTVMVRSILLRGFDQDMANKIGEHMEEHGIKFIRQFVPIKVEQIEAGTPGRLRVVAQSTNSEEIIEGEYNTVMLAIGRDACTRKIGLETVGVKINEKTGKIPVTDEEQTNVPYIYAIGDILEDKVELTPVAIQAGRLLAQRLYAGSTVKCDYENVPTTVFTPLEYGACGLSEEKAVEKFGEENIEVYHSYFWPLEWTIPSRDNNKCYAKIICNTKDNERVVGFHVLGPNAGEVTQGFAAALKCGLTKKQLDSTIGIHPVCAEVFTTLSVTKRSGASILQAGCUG

[7] = tested on: A549; assay: Induction of apoptosis in human A549 cells assessed as viable cells at 2.5 uM measured after 48 hrs by Annexin V/FITC staining based flow cytometric analysis (reference value: 90.8 %); type: functional; conditions: read-out: Activity
[8] = Toxicity in BALB/c mouse assessed as body weight loss at 5 to 10 mg/kg, po administered every 2 days for 2 weeks; type: organism-based; conditions: in vivo, 336 h, dose 5-10 mg/kg
[9] = tested on: A549; assay: Antiproliferative activity against human A549 cells assessed as increase in cell viability in presence of NAC; type: functional, cell-based
[10] = tested on: A549; assay: Induction of apoptosis in human A549 cells assessed as late apoptotic cells at 2.5 uM measured after 48 hrs by Annexin V/FITC staining based flow cytometric analysis (reference value: 5.37%); type: functional
[11] = tested on: NCI-H1299; assay: Induction of apoptosis in human NCI-H1299 cells assessed as necrotic cells at 2.5 uM measured after 48 hrs by Annexin V/FITC staining based flow cytometric analysis (reference value: 0.62%); type: functional
[12] = tested on: NCI-H1299; assay: Antiproliferative activity against human NCI-H1299 cells assessed as decrease in EdU positive cells at 4 uM measured after 14 days by Hoechst 33342 staining based fluorescence microscopic analysis; type: functional, cell-based; conditions: time 14.0 day
[13] = tested on: NCI-H1299; assay: Induction of apoptosis in human NCI-H1299 cells assessed as viable cells at 2.5 uM measured after 48 hrs by Annexin V/FITC staining based flow cytometric analysis (reference value: 96.3%); type: functional; conditions: read-out: Activity
[14] = tested on: A549; assay: Induction of ROS accumulation in human TrxR1 knockdown A549 cells incubated for 24 hrs; type: functional, cell-based
[15] = tested on: NCI-H1299; assay: Induction of morphological changes in human NCI-H1299 cells assessed as decrease in cell density upto 10 uM by AO/EB staining based analysis; type: functional
[16] = tested on: A549; assay: Induction of apoptosis in human A549 cells assessed as increase in green fluorescence intensity upto 10 uM by AO/EB staining based fluorescence microscopic analysis; type: functional, cell-based
[17] = tested on: A549; assay: Induction of apoptosis in human A549 cells assessed as viable cells at 5 uM measured after 48 hrs by Annexin V/FITC staining based flow cytometric analysis (reference value: 90.8 %); type: functional; conditions: read-out: Activity
[18] = tested on: A549; assay: Induction of apoptosis in human A549 cells assessed as late apoptotic cells at 10 uM measured after 48 hrs by Annexin V/FITC staining based flow cytometric analysis (reference value: 5.37%); type: functional
[19] = tested on: NCI-H1299; assay: Induction of apoptosis in human NCI-H1299 cells assessed as late apoptotic cells at 10 uM measured after 48 hrs by Annexin V/FITC staining based flow cytometric analysis (reference value: 1.96%); type: functional
[20] = tested on: NCI-H1299; assay: Induction of ROS accumulation in human TrxR1 knockdown NCI-H1299 cells incubated for 24 hrs; type: functional, cell-based
[21] = tested on: NCI-H1299; assay: Induction of ferroptosis in human NCI-H1299 cells assessed as effect on GPX4 protein expression at 10 uM incubated for 24 hrs by Western blotting analysis; type: functional, cell-based
[22] = Toxicity in BALB/c mouse assessed as liver damage at 5 to 10 mg/kg, po administered every 2 days for 2 weeks by H and E staining based analysis; type: organism-based; conditions: in vivo, 336 h, dose 5-10 mg/kg
[23] = tested on: A549; assay: Induction of ferroptosis in human A549 cells assessed as effect on SLC7A11 protein expression at 10 uM incubated for 24 hrs by Western blotting analysis; type: functional, cell-based
[24] = AUC (0 to infinity) in male Sprague-Dawley rat at 10 mg/kg, iv measured upto 24 hrs by LC-MS/MS analysis; type: ADME, organism-based; conditions: in vivo
[25] = tested on: NCI-H1299; assay: Induction of morphological changes in human NCI-H1299 cells assessed as increase in number of contracted shapes upto 10 uM; type: functional, cell-based
[26] = tested on: NCI-H1299; assay: Cytotoxicity against human NCI-H1299 cells assessed as cell viability incubated for 48 hrs by MTT assay; type: functional, cell-based; conditions: NCI-H1299, 48 h
[27] = tested on: A549; assay: Induction of apoptosis in human A549 cells assessed as necrotic cells at 5 uM measured after 48 hrs by Annexin V/FITC staining based flow cytometric analysis (reference value: 2.52 %); type: functional
[28] = tested on: NCI-H1299; assay: Induction of apoptosis in human NCI-H1299 cells assessed as increase in Bax expression at upto 10 uM incubated for 24 hrs by Western blot analysis; type: functional, cell-based
[29] = Toxicity in BALB/c mouse assessed as heart damage at 5 to 10 mg/kg, po administered every 2 days for 2 weeks by H and E staining based analysis; type: organism-based; conditions: in vivo, 336 h, dose 5-10 mg/kg
[30] = tested on: A549; assay: Induction of apoptosis in human A549 cells assessed as late apoptotic cells at 5 uM measured after 48 hrs by Annexin V/FITC staining based flow cytometric analysis (reference value: 5.37%); type: functional
[31] = tested on: A549; assay: Induction of ferroptosis in human A549 cells assessed as cell death by MTT assay; type: functional, cell-based

inhibition [6]: Dose-dependent-effect
AUC(0-inf) [24]: 1080 ng·h/mL
Compound: CCCNC(=O)O[C@@H]1/C=C(\C)C[C@H]2C=C(C[C@@H]3OC(=O)[C@H](CSC(=S)N(C)C)[C@H]31)C(=O)O2
Activity [1]: Active
Activity [2]: Active
Activity [3]: Active
inhibition [4]: Active
Activity [5]: 10.2%
viability at 2.5 µM [7]: 87.7%
Activity [8]: Non-toxic
Activity [9]: Active
Activity [10]: 6.69%
Activity [11]: 1.2%
Activity [12]: Active
viability at 2.5 µM [13]: 89.7%
Activity [14]: Active
Activity [15]: Active
Activity [16]: Active
viability at 5 µM [17]: 77.8%
Activity [18]: 24.3%
Activity [19]: 21.9%
Activity [20]: Active
Activity [21]: Active
Activity [22]: Non-toxic
Activity [23]: Active
Activity [25]: Active
IC50 [26]: 4.68 µM
Activity [27]: 3.5%
Activity [28]: Active
Activity [29]: Non-toxic
Activity [30]: 16.1%
Activity [31]: Active
